Active and inactive are the calls of the source.
How the values were obtained:
cells [1] = type: functional, cell-based
cells [2] = type: functional, cell-based; remark: listed apart in the source
[3] = target: Heat shock protein HSP 90-alpha (Homo sapiens, UniProt P07900); type: functional, organism-based
[4] = target: 72 kDa type IV collagenase (Homo sapiens, UniProt P08253); experiment: Dose Response validation of uHTS RPN11 inhibitor hits using a MMP-2 Fluorescence assay.; type: functional
[5] = target: 26S proteasome non-ATPase regulatory subunit 14 (Homo sapiens, UniProt O00487); experiment: inhibition of proteasome subunit RPN11 – biochemical, fluorescence polarization, uHTS hits, confirmation (AID 602368); type: functional
Prothrombin = Prothrombin (Bos taurus, UniProt P00735); experiment: thrombin protease inhibitors – biochemical, fluorescence polarization, uHTS hits, dose response (AID 602369); type: functional
[6] = Luminescence Cell-Based Dose Response HTS to Identify Activators of Luciferase Translation or Activity in H4 […] Cells. [Related pubchem assays: 1829 (Project Summary), 1814 (Primary HTS)]; type: functional
[7] = Luminescence Cell-Based Dose Confirmation HTS to Identify Activators of 5'UTR Stem-Loop Driven Alpha-Synuclein mRNA Translation in H4 Neuroglioblastoma Cells. [Related pubchem assays: 1829 (Project Summary), 1814 (Primary HTS)]; type: functional
Cytochrome P450 2D6 = Cytochrome P450 2D6 (Homo sapiens, UniProt P10635);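 also: CYP2D6 member of a cytochrome P450 panel assay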
H4 = experiment: Luminescence Cell-Based Dose Response HTS to Identify Activators of 5'UTR Stem-Loop Driven Prion Protein mRNA Translation in H4 Neuroglioblastoma Cells. [Related pubchem assays: 1829 (Project Summary), 1814 (Primary HTS)]; type: functional; details: Homo sapiens
INS1 = experiment: INS-1E survival protection against cytokine death – cell-based, luminescence, retest, dose response (AID 449756); type: functional; details: Rattus norvegicus;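 also: cell death triggered by IL-1 beta plus TNF-alpha plus IFN-gamma mixture; protective hits raise ATP signal compared with cytokine alone wells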
[8] = NIH-3T3 fibroblast cytotoxicity, dose response, cytotoxicity control, cell-based, fluorescence, Alamar Blue, secondary assay (AID 2327); type: functional;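 also: NIH-3T3 mouse fibroblasts cultured with fluconazole at 8 µg/mL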
[9] = fluconazole-exposed Candida albicans growth modulators – fluorescence, retest, confirmation (AID 2467); type: functional, cell-based
[10] = target: T1, Rac GTPase-activating protein 1 (Homo sapiens, UniProt Q9H0H5); experiment: blockers of MgcRacGAP-driven Rac1 GTP hydrolysis – biochemical, ADP Hunter fluorescence, primary and confirmatory, confirmation (AID 624330); type: functional
T1 sequence (Q9H0H5 whole entry): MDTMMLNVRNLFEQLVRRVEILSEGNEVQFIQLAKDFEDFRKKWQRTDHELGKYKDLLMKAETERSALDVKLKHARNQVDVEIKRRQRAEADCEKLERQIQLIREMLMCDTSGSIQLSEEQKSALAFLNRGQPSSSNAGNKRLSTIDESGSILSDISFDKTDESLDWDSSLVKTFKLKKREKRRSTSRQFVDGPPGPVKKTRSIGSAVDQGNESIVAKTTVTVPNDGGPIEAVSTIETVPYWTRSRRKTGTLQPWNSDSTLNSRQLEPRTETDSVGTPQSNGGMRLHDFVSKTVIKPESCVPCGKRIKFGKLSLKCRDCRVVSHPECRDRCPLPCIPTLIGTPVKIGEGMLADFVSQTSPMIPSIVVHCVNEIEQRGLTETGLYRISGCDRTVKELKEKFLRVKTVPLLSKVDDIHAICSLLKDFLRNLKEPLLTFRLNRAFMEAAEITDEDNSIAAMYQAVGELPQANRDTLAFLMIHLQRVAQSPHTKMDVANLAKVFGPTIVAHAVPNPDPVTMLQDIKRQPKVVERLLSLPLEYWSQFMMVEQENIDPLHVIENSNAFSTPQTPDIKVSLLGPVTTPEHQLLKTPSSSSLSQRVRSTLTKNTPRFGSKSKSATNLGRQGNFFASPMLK

[11] = potency of ADAM10 substrate cleavage blockers – biochemical, QFRET, dose response (AID 743254);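 also: ADAM10 enzyme with the DM2 quenched FRET peptide as substrate; EDANS fluorescence gain as the protease cuts the substrate; inhibitor potency against ADAM10 proteolytic activity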
[12] = target: Disintegrin and metalloproteinase domain-containing protein 17 (Homo sapiens, UniProt P78536); experiment: inhibition of ADAM17 substrate cleavage – biochemical, quenched FRET substrate, counter-screen for ADAM10 exosite inhibitor project, dose response (AID 743253)
Cysteine protease ATG4B = target: T2, Cysteine protease ATG4B (Homo sapiens, UniProt Q9Y4P1); type: functional;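 also: Fluorescence-based dose-response confirmation assay measuring inhibition of ATG4B activity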
T2 sequence (Q9Y4P1 whole entry): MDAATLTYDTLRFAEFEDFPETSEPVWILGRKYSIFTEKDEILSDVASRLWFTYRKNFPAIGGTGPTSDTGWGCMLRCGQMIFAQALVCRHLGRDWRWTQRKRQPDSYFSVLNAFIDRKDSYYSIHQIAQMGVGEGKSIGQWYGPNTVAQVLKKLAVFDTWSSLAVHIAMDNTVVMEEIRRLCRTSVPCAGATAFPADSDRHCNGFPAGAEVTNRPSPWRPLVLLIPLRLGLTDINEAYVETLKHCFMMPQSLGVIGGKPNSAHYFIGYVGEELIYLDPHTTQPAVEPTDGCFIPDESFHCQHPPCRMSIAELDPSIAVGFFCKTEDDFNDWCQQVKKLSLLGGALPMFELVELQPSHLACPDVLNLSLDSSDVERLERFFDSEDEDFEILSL

Aminopeptidase N = target: T3, Aminopeptidase N (Plasmodium falciparum FcB1/Columbia, UniProt O96935); experiment: malaria alanyl aminopeptidase activity blockers – biochemical, fluorogenic H-Leu-NHMec substrate, 1536-well (AID 1445); parameters: species or system Plasmodium falciparum 3D7, 3D7
T3 sequence (O96935 whole entry): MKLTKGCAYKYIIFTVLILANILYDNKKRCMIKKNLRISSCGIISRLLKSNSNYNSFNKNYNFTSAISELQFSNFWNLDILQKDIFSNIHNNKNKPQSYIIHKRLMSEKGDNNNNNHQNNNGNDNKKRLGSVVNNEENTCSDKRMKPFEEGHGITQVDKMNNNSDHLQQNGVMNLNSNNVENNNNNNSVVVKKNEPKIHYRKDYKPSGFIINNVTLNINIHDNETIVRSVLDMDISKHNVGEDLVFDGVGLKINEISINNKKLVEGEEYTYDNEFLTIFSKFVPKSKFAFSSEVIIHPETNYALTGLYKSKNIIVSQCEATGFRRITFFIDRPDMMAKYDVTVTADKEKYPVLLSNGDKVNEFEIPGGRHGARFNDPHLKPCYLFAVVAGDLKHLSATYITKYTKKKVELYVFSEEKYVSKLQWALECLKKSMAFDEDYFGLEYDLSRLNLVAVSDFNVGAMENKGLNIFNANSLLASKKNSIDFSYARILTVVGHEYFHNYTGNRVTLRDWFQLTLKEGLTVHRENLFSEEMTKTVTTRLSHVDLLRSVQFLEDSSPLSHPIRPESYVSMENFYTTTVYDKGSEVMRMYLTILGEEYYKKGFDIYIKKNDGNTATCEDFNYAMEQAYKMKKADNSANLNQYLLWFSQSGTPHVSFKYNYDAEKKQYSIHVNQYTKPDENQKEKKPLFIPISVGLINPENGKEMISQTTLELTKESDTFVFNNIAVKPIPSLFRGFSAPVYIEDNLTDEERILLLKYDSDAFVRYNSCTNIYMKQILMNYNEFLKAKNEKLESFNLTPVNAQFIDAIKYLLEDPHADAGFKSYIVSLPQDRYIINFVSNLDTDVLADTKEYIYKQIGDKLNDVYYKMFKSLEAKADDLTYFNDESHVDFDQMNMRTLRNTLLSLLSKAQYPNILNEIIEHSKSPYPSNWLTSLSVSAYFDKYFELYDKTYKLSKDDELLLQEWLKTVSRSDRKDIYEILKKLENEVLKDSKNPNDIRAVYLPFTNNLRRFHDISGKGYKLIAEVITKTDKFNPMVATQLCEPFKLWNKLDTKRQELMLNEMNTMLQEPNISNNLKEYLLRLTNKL

Phospholipase A2 = Phospholipase A2 (Homo sapiens, UniProt P04054); type: functional;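 also: confirmatory dose-response counterscreen on phospholipase A2, testing hits that came from an ultra-high-throughput screen for ATG4B inhibitors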
[13] = test system: Streptococcus sp. 'group A'; experiment: Streptococcus pyogenes SK(-)GAS viability under kanamycin – luminescence, BacTiterGlo, confirmation, counter-screen for streptokinase expression inhibitor project, dose response (AID 1900); type: functional, organism-based
Streptococcus = experiment: GAS UMAA2166 growth inhibition – luminescence, BacTiterGlo, counter-screen for streptokinase expression inhibitor project, dose response (AID 1915); type: functional, organism-based;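 also: potency for reduction of bacterial viability or growth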
Streptokinase A = target: T4, Streptokinase A (Streptococcus pyogenes serotype M1, UniProt P10520); experiment: viability-normalized secreted streptokinase activity reduction – plasminogen activation absorbance, OD405, dose response (AID 1914); type: functional, Streptococcus pyogenes M1 GAS;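 also: secreted streptokinase activity via plasminogen activation per viability signal from cell pellet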
T4 sequence (P10520 whole entry): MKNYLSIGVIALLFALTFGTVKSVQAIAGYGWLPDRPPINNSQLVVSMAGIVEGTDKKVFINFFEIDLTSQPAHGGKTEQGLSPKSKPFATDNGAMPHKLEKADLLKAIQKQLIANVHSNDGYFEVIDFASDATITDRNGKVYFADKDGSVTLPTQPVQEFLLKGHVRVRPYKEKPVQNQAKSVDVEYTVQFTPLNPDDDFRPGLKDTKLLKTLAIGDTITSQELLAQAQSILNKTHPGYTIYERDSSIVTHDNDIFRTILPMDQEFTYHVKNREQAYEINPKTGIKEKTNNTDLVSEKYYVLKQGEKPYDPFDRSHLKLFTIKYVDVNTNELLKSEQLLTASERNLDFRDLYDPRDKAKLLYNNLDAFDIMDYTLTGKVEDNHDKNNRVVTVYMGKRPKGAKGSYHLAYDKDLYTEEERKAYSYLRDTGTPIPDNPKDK

26S proteasome non-ATPase regulatory subunit 14, sequence (O00487 whole entry): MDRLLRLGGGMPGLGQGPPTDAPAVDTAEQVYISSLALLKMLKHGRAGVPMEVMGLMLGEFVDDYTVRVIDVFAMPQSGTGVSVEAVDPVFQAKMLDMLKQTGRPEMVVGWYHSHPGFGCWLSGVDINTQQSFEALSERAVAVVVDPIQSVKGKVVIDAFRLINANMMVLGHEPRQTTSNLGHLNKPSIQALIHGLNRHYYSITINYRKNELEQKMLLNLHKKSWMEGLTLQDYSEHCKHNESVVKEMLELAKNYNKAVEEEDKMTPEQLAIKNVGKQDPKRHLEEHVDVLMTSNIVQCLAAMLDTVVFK
72 kDa type IV collagenase, sequence (P08253 whole entry): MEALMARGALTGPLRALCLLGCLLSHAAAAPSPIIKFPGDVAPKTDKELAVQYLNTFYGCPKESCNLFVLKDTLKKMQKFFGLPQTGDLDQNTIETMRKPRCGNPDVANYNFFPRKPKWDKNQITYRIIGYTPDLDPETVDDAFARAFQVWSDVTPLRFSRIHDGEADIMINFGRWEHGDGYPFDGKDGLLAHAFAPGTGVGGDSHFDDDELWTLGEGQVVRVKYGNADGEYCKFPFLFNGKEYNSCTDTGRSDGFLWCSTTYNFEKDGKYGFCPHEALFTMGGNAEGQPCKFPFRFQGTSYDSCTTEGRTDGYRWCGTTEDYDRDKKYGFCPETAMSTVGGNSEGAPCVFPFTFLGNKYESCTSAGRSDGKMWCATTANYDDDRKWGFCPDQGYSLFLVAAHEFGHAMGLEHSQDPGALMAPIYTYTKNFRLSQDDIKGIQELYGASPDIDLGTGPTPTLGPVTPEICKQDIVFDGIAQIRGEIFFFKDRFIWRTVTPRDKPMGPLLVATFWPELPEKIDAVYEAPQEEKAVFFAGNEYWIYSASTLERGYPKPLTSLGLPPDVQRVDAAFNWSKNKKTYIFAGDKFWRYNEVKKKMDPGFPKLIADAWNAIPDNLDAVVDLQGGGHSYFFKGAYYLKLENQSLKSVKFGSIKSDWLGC
Disintegrin and metalloproteinase domain-containing protein 17, sequence (P78536 whole entry, the tested form may be a part): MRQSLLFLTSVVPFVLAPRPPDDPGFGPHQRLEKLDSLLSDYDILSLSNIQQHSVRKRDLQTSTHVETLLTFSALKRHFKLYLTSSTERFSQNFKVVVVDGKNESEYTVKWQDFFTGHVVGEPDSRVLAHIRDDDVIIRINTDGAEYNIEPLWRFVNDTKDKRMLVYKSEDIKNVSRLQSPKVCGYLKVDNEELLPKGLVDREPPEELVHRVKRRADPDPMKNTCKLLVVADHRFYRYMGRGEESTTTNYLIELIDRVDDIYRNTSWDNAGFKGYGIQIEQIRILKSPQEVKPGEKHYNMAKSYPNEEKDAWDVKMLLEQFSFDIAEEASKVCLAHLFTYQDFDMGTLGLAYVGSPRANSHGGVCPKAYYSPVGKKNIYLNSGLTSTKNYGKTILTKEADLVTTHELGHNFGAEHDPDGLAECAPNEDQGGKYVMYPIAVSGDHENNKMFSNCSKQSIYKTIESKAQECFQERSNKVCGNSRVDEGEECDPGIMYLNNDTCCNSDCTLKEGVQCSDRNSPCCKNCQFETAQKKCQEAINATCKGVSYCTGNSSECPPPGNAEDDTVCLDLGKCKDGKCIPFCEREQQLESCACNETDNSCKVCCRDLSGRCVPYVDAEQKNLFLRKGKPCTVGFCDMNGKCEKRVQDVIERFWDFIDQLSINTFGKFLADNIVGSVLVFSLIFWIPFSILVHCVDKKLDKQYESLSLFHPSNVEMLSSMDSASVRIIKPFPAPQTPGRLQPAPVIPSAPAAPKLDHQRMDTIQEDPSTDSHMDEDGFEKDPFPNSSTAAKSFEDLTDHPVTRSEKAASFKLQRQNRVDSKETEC
Phospholipase A2, sequence (P04054 whole entry): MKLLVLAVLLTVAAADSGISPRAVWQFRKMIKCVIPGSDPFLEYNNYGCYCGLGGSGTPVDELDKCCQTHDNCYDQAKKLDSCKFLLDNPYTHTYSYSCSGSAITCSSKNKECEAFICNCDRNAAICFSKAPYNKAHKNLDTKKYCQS
Cytochrome P450 2D6, sequence (P10635 whole entry): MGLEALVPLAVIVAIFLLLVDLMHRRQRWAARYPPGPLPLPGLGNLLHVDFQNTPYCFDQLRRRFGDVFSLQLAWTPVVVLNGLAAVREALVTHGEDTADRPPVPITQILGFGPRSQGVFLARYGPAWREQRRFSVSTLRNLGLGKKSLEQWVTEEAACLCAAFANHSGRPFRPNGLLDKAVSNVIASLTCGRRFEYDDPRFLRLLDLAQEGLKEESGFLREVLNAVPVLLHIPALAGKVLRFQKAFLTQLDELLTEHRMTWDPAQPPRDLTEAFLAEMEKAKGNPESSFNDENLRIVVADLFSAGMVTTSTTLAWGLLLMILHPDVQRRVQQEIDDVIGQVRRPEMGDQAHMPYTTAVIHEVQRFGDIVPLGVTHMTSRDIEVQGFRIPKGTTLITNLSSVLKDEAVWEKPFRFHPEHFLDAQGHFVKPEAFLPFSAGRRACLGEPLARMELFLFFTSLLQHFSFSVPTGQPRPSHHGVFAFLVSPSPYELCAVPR

With CCOC(=O)c1ccc(N2CN(CCc3ccccc3)CN=C2S)cc1 the IC50 (cells [1]) was > 29.9 µM (inactive) and the EC50 (cells [2]) was > 29.9 µM (inactive).
With C=CCn1c(C)cc(C(=O)CSc2nnc(NCc3ccccc3)s2)c1C the AC50 [3] was 4.03 µM (active).
With N=C1/C(=C\c2ccc(-c3cccc(Cl)c3)o2)C(=O)N=C2SC=C(c3ccccc3)N12 the IC50 [4] was > 100 µM (inactive), the IC50 [5] was 27.8 µM (active) and the IC50 (Prothrombin) was 52.9 µM (active).
In the case of NC(=Nc1cccc2ccccc12)Nc1nc(O)c2c(n1)CCC2, the IC50 [4] is reported as > 100 µM (inactive), the EC50 [6] is reported as > 120 µM (not active) and the EC50 [7] is reported as > 120 µM (not active). The AC50 (Cytochrome P450 2D6) was 11.2 µM (inconclusive), the IC50 [5] was 24.3 µM (active) and the IC50 (Prothrombin) was > 100 µM (inactive). For the same molecule, the EC50 (H4) was > 120 µM (not active).
For COc1ccc(C(=O)NC(=S)NNC(=O)c2cnccn2)cc1, the AC50 [3] was 2.71 µM (active), the AC50 (INS1) was 0.933 µM (active) and the EC50 [8] was 9.88 µM (active). The EC50 [9] was 2.02 µM (active).
With COc1cc(/C=C2/C(=O)NN(c3ccc(Cl)cc3)C2=O)cc(Br)c1O the IC50 [4] was 54.8 µM (active), the IC50 [5] was 14.5 µM (active) and the IC50 (Prothrombin) was 60.6 µM (active). The IC50 [10] was 103 µM (active).
In the case of CCN(CC)c1ccc(/C=N/NC(=O)c2cccc(S(=O)(=O)Nc3ccccc3OC)c2)cc1, the IC50 [4] is reported as > 100 µM (inactive), the IC50 [5] is reported as 26.3 µM (active) and the IC50 (Prothrombin) is reported as 33.2 µM (active).
For C#CCN(C[C@@H]1[C@@H](OC(=O)NCc2ccc(OC)c(OC)c2)[C@@H](OC(=O)NCc2ccc(OC)c(OC)c2)Cn2c(=O)n(CCCCCC)c(=O)n21)S(=O)(=O)c1ccc(C)cc1, the IC50 [11] was > 69.5 µM (inactive) and the IC50 [12] was > 69.5 µM (inactive).
With Cc1cccc(C)c1OCc1nc2ccccc2c(=O)n1/N=C/c1ccc(OCC(=O)O)cc1 the IC50 (Cysteine protease ATG4B) was 14.7 µM (active), the IC50 (Aminopeptidase N) was < 1 µM (active) and the IC50 (Phospholipase A2) was 9.81 µM (active).
In the case of Oc1cccc(/C=N/N(Cc2ccccc2)c2ccccc2)c1, the EC50 [13] is reported as 6.42 µM (active), the IC50 [11] is reported as > 7.73 µM (active) and the EC50 (Streptococcus) is reported as 7.85 µM (active). The IC50 [12] was > 69.5 µM (inactive) and the EC50 (Streptokinase A) was > 150 µM (not active).

Source: ChEMBL document CHEMBL1201862, “PubChem BioAssay data set” (2004)
